How the values were obtained:
ARK5 = target: T1, ARK5 (Homo sapiens, UniProt O60285); test: KinomeScan; format: binding; details: read-out: % Control
T1 construct: purchased DiscoveRx (Fremont, CA)

CLK2 = CLK2 (Homo sapiens, UniProt P49760); test: KinomeScan; format: binding; details: read-out: % Control
CSNK1G2 = CSNK1G2 (Homo sapiens, UniProt P78368); test: KinomeScan; format: binding; details: read-out: % Control
DAPK3 = target: T2, DAPK3 (Homo sapiens, UniProt O43293); test: KinomeScan; format: binding; details: read-out: % Control
T2 construct: purchased DiscoveRx (Fremont, CA), KinomeScan service

DRAK1 = target: T3, DRAK1 (Homo sapiens, UniProt Q9UEE5); test: KinomeScan; format: binding; details: read-out: % Control
T3 construct: purchased DiscoveRx (Fremont, CA), KinomeScan service

EGFR(G719S) = target: T4, EGFR(G719S) (Homo sapiens, UniProt P00533, G719S); test: KinomeScan; format: binding; details: read-out: % Control
T4 construct: purchased DiscoveRx (Fremont, CA), KinomeScan service

FER = target: T5, FER (Homo sapiens, UniProt P16591); test: KinomeScan; format: binding; details: read-out: % Control
T5 construct: purchased DiscoveRx (Fremont, CA)

HIPK4 = target: T6, HIPK4 (Homo sapiens, UniProt Q8NE63); test: KinomeScan; format: binding; details: read-out: % Control
T6 construct: purchased DiscoveRx (Fremont, CA)

IGF1R = target: T7, IGF1R (Homo sapiens, UniProt P08069); test: KinomeScan; format: binding; details: read-out: % Control
T7 construct: purchased DiscoveRx (Fremont, CA)

MELK = target: T8, MELK (Homo sapiens, UniProt Q14680); test: KinomeScan; format: binding; details: read-out: % Control
T8 construct: purchased DiscoveRx (Fremont, CA)

PIK3C2B = target: T9, PIK3C2B (Homo sapiens, UniProt O00750); test: KinomeScan; format: binding; details: read-out: % Control
T9 construct: purchased DiscoveRx (Fremont, CA)

PIM1 = target: T10, PIM1 (Homo sapiens, UniProt P11309); test: KinomeScan; format: binding; details: read-out: % Control
T10 construct: purchased DiscoveRx (Fremont, CA)

PLK3 = target: T11, PLK3 (Homo sapiens, UniProt Q9H4B4); test: KinomeScan; format: binding; details: read-out: % Control
T11 construct: purchased DiscoveRx (Fremont, CA)

PRKCH = target: T12, PRKCH (Homo sapiens, UniProt P24723); test: KinomeScan; format: binding; details: read-out: % Control
T12 construct: purchased DiscoveRx (Fremont, CA)

[1] = target: T13, RPS6KA4(Kin.Dom.2-C-terminal) (Homo sapiens, UniProt O75676); test: KinomeScan; format: binding; details: read-out: % Control
T13 construct: RPS6KA4(Kin.Dom.2-C-terminal); purchased DiscoveRx (Fremont, CA)

[2] = target: T14, RPS6KA5(Kin.Dom.2-C-terminal) (Homo sapiens, UniProt O75582); test: KinomeScan; format: binding; details: read-out: % Control
T14 construct: RPS6KA5(Kin.Dom.2-C-terminal); purchased DiscoveRx (Fremont, CA)

SgK110 = target: T15, SgK110 (Homo sapiens, UniProt P0C264); test: KinomeScan; format: binding; details: read-out: % Control
T15 construct: purchased DiscoveRx (Fremont, CA)

SNARK = target: T16, SNARK (Homo sapiens, UniProt Q9H093); test: KinomeScan; format: binding; details: read-out: % Control
T16 construct: purchased DiscoveRx (Fremont, CA)

TAOK3 = target: T17, TAOK3 (Homo sapiens, UniProt Q9H2K8); test: KinomeScan; format: binding; details: read-out: % Control
T17 construct: purchased DiscoveRx (Fremont, CA)

ADRB1 = target: T18, ADRB1 (Homo sapiens, UniProt P08588); test: GPCR Profiler; format: cell-based
T18 construct: host or cells: Chem-1 cells with promiscuous Gα15

BLY1 = target: T19, BLY1 (Homo sapiens, UniProt Q15722); test: GPCR Profiler; format: cell-based
T19 construct: host or cells: Chem-1 cells with promiscuous Gα15

CaS = target: T20, CaS (Homo sapiens, UniProt P41180); test: GPCR Profiler; format: cell-based
T20 construct: host or cells: Chem-1 cells with promiscuous Gα15

EP2 = target: T21, EP2 (Homo sapiens, UniProt P43116); test: GPCR Profiler; format: cell-based
T21 construct: host or cells: Chem-1 cells expressing Gα15

M4 = target: T22, M4 (Homo sapiens, UniProt P08173); test: GPCR Profiler; format: cell-based
T22 construct: host or cells: Chem-1 cells with promiscuous Gα15

S1P2 = target: T23, S1P2 (Homo sapiens, UniProt O95136); test: GPCR Profiler; format: cell-based
T23 construct: host or cells: Chem-1 cells with Gα15
T23 sequence (O95136 whole entry, species assumed): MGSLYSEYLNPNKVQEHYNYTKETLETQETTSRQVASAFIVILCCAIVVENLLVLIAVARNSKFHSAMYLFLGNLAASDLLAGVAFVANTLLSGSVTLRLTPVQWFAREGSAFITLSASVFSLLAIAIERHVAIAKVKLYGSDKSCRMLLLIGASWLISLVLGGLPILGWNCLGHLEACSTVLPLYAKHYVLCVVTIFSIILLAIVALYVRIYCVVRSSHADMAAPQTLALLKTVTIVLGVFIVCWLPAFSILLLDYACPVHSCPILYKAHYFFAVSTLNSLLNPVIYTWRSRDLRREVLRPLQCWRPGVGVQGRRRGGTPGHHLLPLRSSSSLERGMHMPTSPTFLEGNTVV

T18 sequence (P08588 whole entry, species assumed): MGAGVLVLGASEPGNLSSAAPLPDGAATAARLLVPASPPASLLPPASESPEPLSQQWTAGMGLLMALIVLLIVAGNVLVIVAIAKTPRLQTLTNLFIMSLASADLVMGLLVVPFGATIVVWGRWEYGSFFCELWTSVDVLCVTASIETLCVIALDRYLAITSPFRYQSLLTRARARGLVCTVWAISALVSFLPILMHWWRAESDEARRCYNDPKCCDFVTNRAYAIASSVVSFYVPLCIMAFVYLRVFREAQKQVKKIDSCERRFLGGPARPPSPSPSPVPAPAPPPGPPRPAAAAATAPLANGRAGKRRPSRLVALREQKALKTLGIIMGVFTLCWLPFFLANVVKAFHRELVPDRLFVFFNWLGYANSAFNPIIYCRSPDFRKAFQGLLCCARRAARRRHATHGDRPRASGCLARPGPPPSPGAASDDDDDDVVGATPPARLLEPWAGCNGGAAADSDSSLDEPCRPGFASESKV
T20 sequence (P41180 20-1078): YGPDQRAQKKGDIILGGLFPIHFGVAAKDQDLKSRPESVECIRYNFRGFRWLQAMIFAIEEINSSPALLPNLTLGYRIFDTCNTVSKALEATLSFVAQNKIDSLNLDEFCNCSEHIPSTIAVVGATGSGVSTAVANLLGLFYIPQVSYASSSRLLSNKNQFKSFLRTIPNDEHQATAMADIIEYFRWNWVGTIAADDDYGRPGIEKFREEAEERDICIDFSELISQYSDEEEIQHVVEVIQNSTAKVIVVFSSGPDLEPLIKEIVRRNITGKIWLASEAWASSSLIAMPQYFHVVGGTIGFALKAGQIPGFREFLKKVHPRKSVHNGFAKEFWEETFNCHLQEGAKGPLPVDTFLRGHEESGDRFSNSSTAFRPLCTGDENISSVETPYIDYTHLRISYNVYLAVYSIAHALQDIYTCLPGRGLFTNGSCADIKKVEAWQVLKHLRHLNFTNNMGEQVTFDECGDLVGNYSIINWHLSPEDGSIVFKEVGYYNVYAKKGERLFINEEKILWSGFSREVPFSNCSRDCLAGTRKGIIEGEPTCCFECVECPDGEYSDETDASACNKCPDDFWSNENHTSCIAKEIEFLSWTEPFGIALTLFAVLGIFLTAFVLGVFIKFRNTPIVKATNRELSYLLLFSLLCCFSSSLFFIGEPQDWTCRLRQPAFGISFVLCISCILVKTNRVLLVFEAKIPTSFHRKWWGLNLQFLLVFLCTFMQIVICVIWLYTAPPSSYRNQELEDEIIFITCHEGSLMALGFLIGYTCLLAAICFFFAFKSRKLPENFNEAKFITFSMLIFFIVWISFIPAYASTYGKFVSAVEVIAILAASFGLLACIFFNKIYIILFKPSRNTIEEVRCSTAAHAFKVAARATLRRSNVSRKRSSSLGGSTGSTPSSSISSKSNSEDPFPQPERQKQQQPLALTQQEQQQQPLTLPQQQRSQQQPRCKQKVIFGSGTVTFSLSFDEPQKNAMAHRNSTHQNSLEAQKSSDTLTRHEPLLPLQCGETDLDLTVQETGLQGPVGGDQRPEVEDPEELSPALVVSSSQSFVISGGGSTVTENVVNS
T21 sequence (P43116 whole entry): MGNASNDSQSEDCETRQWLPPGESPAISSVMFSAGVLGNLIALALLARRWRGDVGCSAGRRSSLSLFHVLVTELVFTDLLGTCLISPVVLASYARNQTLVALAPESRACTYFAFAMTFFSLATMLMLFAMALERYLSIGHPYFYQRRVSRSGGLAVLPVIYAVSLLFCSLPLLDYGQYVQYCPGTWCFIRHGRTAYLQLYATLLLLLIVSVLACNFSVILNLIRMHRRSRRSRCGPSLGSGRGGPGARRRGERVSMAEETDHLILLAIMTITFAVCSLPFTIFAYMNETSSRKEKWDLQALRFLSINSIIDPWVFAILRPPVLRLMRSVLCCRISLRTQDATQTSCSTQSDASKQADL
T22 sequence (P08173 whole entry): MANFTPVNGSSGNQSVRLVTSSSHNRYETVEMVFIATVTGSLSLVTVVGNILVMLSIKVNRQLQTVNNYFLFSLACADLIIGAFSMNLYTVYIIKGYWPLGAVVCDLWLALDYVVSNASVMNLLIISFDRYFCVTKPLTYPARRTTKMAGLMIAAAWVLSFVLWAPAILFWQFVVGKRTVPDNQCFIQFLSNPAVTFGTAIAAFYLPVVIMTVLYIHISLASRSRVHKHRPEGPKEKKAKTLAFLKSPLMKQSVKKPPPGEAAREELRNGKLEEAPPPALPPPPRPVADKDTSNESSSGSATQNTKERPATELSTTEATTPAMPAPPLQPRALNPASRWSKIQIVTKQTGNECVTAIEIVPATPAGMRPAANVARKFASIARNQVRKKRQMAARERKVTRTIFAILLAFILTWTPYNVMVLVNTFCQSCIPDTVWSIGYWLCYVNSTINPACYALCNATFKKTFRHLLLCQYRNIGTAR
T19 sequence (Q15722 whole entry): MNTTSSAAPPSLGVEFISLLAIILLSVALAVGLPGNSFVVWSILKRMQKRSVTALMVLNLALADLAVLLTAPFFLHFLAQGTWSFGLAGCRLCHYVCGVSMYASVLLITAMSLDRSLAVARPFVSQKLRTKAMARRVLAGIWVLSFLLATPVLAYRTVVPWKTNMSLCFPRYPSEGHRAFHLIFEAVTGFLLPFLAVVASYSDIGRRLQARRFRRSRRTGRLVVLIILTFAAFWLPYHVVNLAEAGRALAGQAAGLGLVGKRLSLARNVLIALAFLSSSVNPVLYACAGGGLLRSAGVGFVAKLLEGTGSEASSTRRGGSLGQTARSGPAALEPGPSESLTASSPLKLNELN
T15 sequence (P0C264 whole entry): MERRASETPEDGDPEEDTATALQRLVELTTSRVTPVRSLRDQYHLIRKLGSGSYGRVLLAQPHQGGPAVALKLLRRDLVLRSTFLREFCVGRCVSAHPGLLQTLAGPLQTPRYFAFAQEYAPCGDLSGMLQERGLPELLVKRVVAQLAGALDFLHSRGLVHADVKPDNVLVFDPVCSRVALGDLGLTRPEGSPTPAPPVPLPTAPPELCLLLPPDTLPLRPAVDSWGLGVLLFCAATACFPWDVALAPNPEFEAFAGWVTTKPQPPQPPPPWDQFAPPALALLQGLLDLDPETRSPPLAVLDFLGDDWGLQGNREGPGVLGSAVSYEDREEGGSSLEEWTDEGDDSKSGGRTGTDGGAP
T12 sequence (P24723 whole entry): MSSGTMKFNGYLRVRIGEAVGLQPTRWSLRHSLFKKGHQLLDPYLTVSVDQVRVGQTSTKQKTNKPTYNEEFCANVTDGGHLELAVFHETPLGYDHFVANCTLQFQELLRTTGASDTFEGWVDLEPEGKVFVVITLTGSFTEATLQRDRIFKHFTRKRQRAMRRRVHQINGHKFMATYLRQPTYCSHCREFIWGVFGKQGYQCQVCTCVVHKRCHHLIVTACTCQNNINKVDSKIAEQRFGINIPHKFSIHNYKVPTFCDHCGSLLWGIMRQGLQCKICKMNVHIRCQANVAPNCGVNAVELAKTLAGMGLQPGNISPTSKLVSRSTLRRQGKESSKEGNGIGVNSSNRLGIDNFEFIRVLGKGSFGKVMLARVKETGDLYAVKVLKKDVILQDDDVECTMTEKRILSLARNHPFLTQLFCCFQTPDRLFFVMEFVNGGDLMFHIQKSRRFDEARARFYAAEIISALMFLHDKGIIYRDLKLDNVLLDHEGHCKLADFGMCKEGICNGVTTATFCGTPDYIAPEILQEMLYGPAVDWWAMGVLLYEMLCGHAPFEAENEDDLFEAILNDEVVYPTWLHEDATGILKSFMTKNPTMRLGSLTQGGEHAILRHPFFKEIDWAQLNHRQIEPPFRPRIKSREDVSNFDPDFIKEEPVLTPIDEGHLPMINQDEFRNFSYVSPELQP
T14 sequence (O75582 426-687 limits assumed): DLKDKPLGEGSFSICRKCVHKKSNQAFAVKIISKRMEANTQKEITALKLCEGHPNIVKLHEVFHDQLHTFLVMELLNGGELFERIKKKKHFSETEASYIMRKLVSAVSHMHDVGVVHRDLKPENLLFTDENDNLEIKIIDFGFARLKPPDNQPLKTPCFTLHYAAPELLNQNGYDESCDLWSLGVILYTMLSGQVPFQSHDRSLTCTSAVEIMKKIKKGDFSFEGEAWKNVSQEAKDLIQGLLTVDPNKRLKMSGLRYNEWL
T13 sequence (O75676 411-674 limits assumed): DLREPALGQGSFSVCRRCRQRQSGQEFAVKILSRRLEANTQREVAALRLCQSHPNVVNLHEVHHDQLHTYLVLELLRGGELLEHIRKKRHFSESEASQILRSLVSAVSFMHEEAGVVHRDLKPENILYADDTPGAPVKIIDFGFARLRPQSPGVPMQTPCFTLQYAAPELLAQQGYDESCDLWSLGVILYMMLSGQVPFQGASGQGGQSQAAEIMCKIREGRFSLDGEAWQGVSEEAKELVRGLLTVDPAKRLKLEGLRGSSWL
T10 sequence (P11309 whole entry): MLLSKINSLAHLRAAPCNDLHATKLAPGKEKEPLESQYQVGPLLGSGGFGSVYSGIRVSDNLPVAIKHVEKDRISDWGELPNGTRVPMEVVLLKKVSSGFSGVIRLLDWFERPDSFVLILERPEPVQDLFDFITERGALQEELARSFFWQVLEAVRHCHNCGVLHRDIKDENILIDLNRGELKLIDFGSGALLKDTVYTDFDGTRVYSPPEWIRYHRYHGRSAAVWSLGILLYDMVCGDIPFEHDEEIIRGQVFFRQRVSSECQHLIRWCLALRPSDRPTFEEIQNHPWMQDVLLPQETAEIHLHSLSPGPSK

## CCc1ccc2c(c1)C1(NN=C(c3cccc4ccccc34)S1)C(=O)N2 (stereo not shown) [OGM1, 5-ethyl-5′-naphthalen-1-ylspiro[1H-indole-3,2′-3H-1,3,4-thiadiazole]-2-one]
ARK5
  remaining binding at 10 µM: 80%
CLK2
  remaining binding at 10 µM: 61%
CSNK1G2
  remaining binding at 10 µM: 100%
DAPK3
  remaining binding at 10 µM: 91%
DRAK1
  remaining binding at 10 µM: 100%
EGFR(G719S)
  remaining binding at 10 µM: 95%
FER
  remaining binding at 10 µM: 100%
HIPK4
  remaining binding at 10 µM: 100%
IGF1R
  remaining binding at 10 µM: 84%
MELK
  remaining binding at 10 µM: 100%
PIK3C2B
  remaining binding at 10 µM: 95%
PIM1
  remaining binding at 10 µM: 56%
PLK3
  remaining binding at 10 µM: 100%
PRKCH
  remaining binding at 10 µM: 100%
[1]
  remaining binding at 10 µM: 74%
[2]
  remaining binding at 10 µM: 91%
SgK110
  remaining binding at 10 µM: 100%
SNARK
  remaining binding at 10 µM: 100%
TAOK3
  remaining binding at 10 µM: 79%
ADRB1; 10 uM
  Antagonism: −9.6
ADRB1; 12.5 uM
  Agonism: −1.3
BLY1; 10 uM
  Antagonism: −5.5
BLY1; 12.5 uM
  Agonism: 0.3
CaS; 10 uM
  Antagonism: −3.6
CaS; 12.5 uM
  Agonism: −1.2
EP2; 10 uM
  Antagonism: 7
EP2; 12.5 uM
  Agonism: −0.2
M4; 10 uM
  Antagonism: −2.8
M4; 12.5 uM
  Agonism: −0.6
S1P2; 10 uM
  Antagonism: −3.3
S1P2; 12.5 uM
  Agonism: 0.5

Source: US20240327364A1, “THERAPEUTIC TARGETING OF GPR68 TO INDUCE FERROPTOSIS” (University Of Maryland, Baltimore, priority 2023, published 2024)
